Here are results for one substance from publication PMC9475553, “SHF Acts as a Novel Tumor Suppressor in Glioblastoma Multiforme by Disrupting STAT3 Dimerization” (Advanced Science, 2022).

Format in all cases: cell-based, human
In one series the test system is STAT3/DNMT1 interaction. The experiment in a line: IP assay: endogenous STAT3/DNMT1 interaction in U87 cells. Particulars: C16 for 2 h, n = 3, p < 0.01. As to the method:
Figure 7 Peptide derived from the STAT3‐binding sites of SHF is an effective GBM suppressive strategy. A) Binding model between SHF and STAT3 using ZDOCK server. […] B) IF staining determined the cell penetrability and nuclear‐localization of C16. U251 cells were incubated with C16 or SC for 2 h and performed IF staining using the indicated antibodies. Bars, 10 µm. C) The statical analysis of adsorption equilibrium assay detecting the binding of C16 and SC with recombinant STAT3. D) Pull‐down assay indicating C16 binds STAT3. GST‐STAT3 was incubated with C16 or SC for 2 h, and the pull‐down assay was performed using Anti‐His magnetic beads. E) IP assay showing the effect of C16 on STAT3 dimerization. 293T cells transfected with indicated vectors were incubated with C16 for 2 h. The relative quantification of STAT3 dimerization was listed. F) IP assay detecting the effect of C16 on the interaction of STAT3 and DNMT1. […] The relative quantification of STAT3/DNMT1 interaction was listed. […] The relative quantification of STAT3/DNMT1 interaction was listed. […] Positive cells were quantified 20 randomly selected fields per mouse (n = 6, Student's t‐test, **p < 0.01). […]
Immunoprecipitation (IP) experiments were performed to analyze the protein interactions. […] Precipitated products were analyzed by Western blot using the specified antibodies. […]

For a further series, the system named is U118 cells. The experiment in a line: Cell growth assay (CCK-8), U118. Particulars: n=6. As for the experimental part:
Cell growth was quantified using the Cell Counting Kit‐8 Assay Kit (Bimake, Houston, TX). Each experiment was repeated at least six times. For the colony formation assay, 800 cells were seeded into each well of a six‐well plate with soft agar (Agarose; Sigma, St. Louis, MO) and maintained in a medium containing 10% FBS for 14 days. The colonies were fixed with methanol and stained with 0.1% crystal violet; the clones containing at least 50 cells were counted using an inverted microscope.
(§1) Supplementary Fig. 9 C16 inhibits tumor growth and promotes chemosensitivity in vitro.
(§2) B. Colony formation of cells treated with SC or C16 (left) and the accompanying statistical
(§3) analysis (right; n=6, Student’s t-test, **P < 0.01).
(§4) C. Annexin V staining flow cytometry assay of cells simultaneously treated with Dox with SC or
(§5) C16 for 48 h (n=3, Student’s t-test, *P < 0.05, **P < 0.01).
(§6) (1 picture or pasted object on this page, not shown here)

For another series, the system named is STAT3 dimerization. The experiment in a line: FRET assay: STAT3 dimerization in U251 cells. The note with it: U251 cells transfected for 24 h, then C16 2 h; n=3, P < 0.01. As to the method: Spectral fluorescence resonance energy transfer (FRET) assay was used to examine the dimerization of STAT3 and interaction between STAT3 and SHF. The procedure was performed as described previously.^[ [46] ^] Briefly, U251 cells were seeded at a density of 20 000 cells/compartment on coverslips coated with 1% poly‐L‐lysine (Sigma) in 24 well‐plates. For detecting SHF inhibiting STAT3 dimerization, ectopic SHF‐expressing stable U251 cells were transfected with STAT3‐DsRed and STAT3‐EGFP. For detecting SHF binding STAT3, U251 cells were transfected with SHF‐DsRed and STAT3‐EGFP. Cells were imaged on a Leica TCS SP8 confocal microscope (40× objective and 10× objective, 488 nm Argon laser line) after 24 h. Cells were excited with 488 nm laser (donor), and the emission of the acceptor DsRed was recorded at 565 nm. The FRET efficiency was calculated on a pixel‐by‐pixel basis with the following equation: FRET efficiency = FRETcorr / (FRETcorr + Donor). […] To increase the reliability of the calculations and prevent noise from distorting the calculated ratio, we excluded pixels below 50 intensity units and saturated pixels from the calculations and set their intensities to zero. […]
Supplementary Fig. 8 Quantitative analysis of normalized FRET ratio in U251 cells (n=3, […]

The subject of the next series is GBM cells. Kind of series: Annexin V flow cytometry apoptosis assay. The note with it: 25 uM stated adequate for subsequent experiments, n=3. As for the experimental part: Cell apoptosis was detected by flow cytometry according to the manufacturer's instructions of the Annexin V‐FITC Apoptosis Detection Kit (KeyGen Biotech, China). Briefly, cells were incubated with Doxorubicin (DOX, 2 µM) for 48 h. Cells were harvested and rinsed with ice‐cold PBS and then resuspended in 200 µL of binding buffer. 10 mL of AV‐FITC stock solution was added to cell suspensions and incubated for 15 min at RT. Cells were further rinsed with 200 µL ice‐cold PBS and immediately analyzed by a FACScan flow cytometry.
as §1, §2, §3, §4, §5, §6
(In flow cytometry, cells or beads pass a laser one at a time.)

For the substance “C16: peptide spanning SHF amino acids 388–421, palmitic acid at the N-terminus, amidated C-terminus, 3× His tags added to the C-terminal (PFSSVPEIVHHYASRKLPIKGAEHMSLLYPVAIR; palmitic acid at the N-terminus; amidated C-terminus; left off: 3× His tags, C-terminal, kept)”, the “endogenous STAT3/DNMT1 interaction” value in the series with STAT3/DNMT1 interaction is listed as “decrease”. Also, the cell growth inhibition result in the series with U118 cells is listed as “inhibited cell growth with concentration dependence”. Besides, the “inhibition of STAT3 dimerization (FRET)” value in the series on STAT3 dimerization is given as “effectively inhibits STAT3 dimerization”. Further, in the series on GBM cells (C16 vs SC), the spontaneous apoptosis result was “without increasing spontaneous apoptosis”. Moreover, the “chemosensitivity (apoptosis with Dox)” value with GBM cells (simultaneous Dox with SC or C16 for 48 h) is reported as “promoted chemosensitivity”.
